Each molecule was assayed on JAK kinases (JAK1 and JAK3) (assay: JAK inhibition: IL-4-stimulated CD23 upregulation in human Ramos B-cells, FACS). Details: IL-4 stimulated Ramos B-cells, read-out: IC50, inhibition of JAK kinases in cellular assay.
Type: cell-based
Description: JAK inhibition was tested in human Ramos B-cells activated with IL-4. Twenty to 24 hours post stimulation, the cells are stained for upregulation of CD23 and analyzed by FACS. Stimulation of the B-cells with IL-4 leads to the activation of the JAK/STAT pathway through phosphorylation of the JAK kinase JAK1 and JAK3, which in turn phosphorylate and activate transcription of factor […].
For the assay, human Ramos B-cells (ATCC, Catalog No. CRL-1596) are cultured in RPMI 1640 medium (Cellgro, Catalog No. 10-040-CM) containing 10% fetal bovine serum (JRH, Catalog No. 12106-500M) according to the propagation protocol supplied with the cells, and maintained at a density of approximately 3.5×10^5 cells/ml. The day before the assay, the cells are diluted to 3.5×10^5 cells/ml to insure they are in the logarithmic growth phase. The cells are spun down, and suspended in RPMI 1640 medium containing 5% fetal bovine serum to a density of 3.5×10^4 cells/ml and aliquots dispensed into a 96-well tissue culture plate. Cells are incubated with test compound (dissolved in DMSO) or DMSO (control) for 1 hr at 37° C. and then stimulated with IL-4 (Pepotech, Catalog No. 200-04) for 20-24 hours (final concentration is 50 Units/ml). Cells are then spun down, stained with anti-CD23-PE antibody (BD Pharmigen, Catalog No. 555711) and analyzed by FACS.
Molecule `COc1cc2nc(Nc3cccc(O)c3)nc(NC3C4C=CC(C4)C3C(N)=O)c2cc1OC` (racemic) [Compound 101, Racemic-(2-exo,3-exo)-N4-(3-aminocarbonylbicyclo[2.2. 1]hept-5-en-2-yl)-6,7-dimethoxy-N2-(3-hydroxy)phenyl-2,4-quinazoline-diamine] has an IC50 of less than 5 µM.
`NC(=O)c1cccc(Nc2nc(NC3C4C=CC(C4)C3C(N)=O)c3nc[nH]c3n2)c1` (racemic) [Compound 122, Racemic-(2-exo,3-exo)-N6-(3-aminocarbonylbicyclo[2.2. 1]hept-5-en-2-yl)-N2-(3-aminocarbonyl)phenyl-1H-purine-2,6-diamine] gave an IC50 of less than 5 µM.
For `NC(=O)C1C2CCC(C2)C1Nc1nc(Nc2ccc(N3CCCCC3)cc2)nc2[nH]ccc12` (racemic) [Compound 168, Racemic-(2-exo,3-exo) N4-(3-aminocarbonylbicyclo[2.2. 1]hept-2-yl)-N2-[4-(piperidin-1-yl)phenyl]-1H-pyrrlol[2,3-d]pyrimidine-2,4-diamine], the IC50 was greater than 10 µM.
`Cc1cc2cc(Nc3nc(NC4C5C=CC(C5)C4C(N)=O)c4nc[nH]c4n3)ccc2[nH]1` (racemic) [Compound 150, Racemic-(2-exo,3-exo-)-N6-(3-aminocarbonylbicyclo[2.2. 1]hept-5-en-2-yl)-N2-(2-methyl-1H-indol-5-yl)-1H-purine-2,6-diamine] showed an IC50 greater than 10 µM.
In the case of `NC(=O)C1C2C=CC(C2)C1Nc1nc(Nc2ccc3c(c2)OCO3)nc2[nH]cnc12` (racemic) [Compound 125, Racemic-(2-exo,3-exo)-N6-(3-aminocarbonylbicyclo[2.2. 1]hept-5-en-2-yl)-N2-(1,3-benzodioxol-5-yl)-1H-purine-2,6-diamine], the IC50 is reported as greater than 10 µM.
`NC(=O)[C@@H]1[C@H](Nc2nc(Nc3ccc4[nH]ccc4c3)nc3[nH]cnc23)[C@H]2C=C[C@@H]1C2` [Compound 147, (1R,2R,3S,4S)-N6-(3-Aminocarbonylbicyclo[2.2. 1]hept-5-en-2-yl)-N2-(1H-indol-5-yl)-1H-purine-2,6-diamine] gave an IC50 of less than 5 µM.
`NC(=O)C1C2C=CC(C2)C1Nc1nc(Nc2cccc(O)c2)nc2ccccc12` (racemic) [Compound 102, Racemic-(2-exo,3-exo)-N4-(3-aminocarbonylbicyclo[2.2. 1]hept-5-en-2-yl)-N2-(3-hydroxy)phenyl-2,4-quinazoline-diamine] was tested, and the IC50 was less than 5 µM.
